Reference: patent US20250250298A1, “ONCOLYTIC PEPTIDE AND USE THEREOF” (Rise Biopharmaceuticals Inc., priority 2022, published 2025)
Where a SMILES comes first, the peptide text is derived from it. Where no end group is shown, it is not given here.

How the values were obtained:
HFW (Human fibroblast) = assay: MTT cytotoxicity, HFW; format: cell-based; conditions: 24 hours incubation
Source text: (§1) The MTT assay is a colorimetric method for measuring the activity of enzymes in living cells that reduces Thiazolyl blue tetrazolium bromide (MTT) to formazan dyes showing a purple color. In this embodiment, a colorimetric 3-(4.5-dimethylthiazol-2-yl)-2.5-diphenyltetrazodium bromide (MTT) viability assay was used to assess the in vitro cytotoxicity of oncolytic peptides.
(§2) The half inhibition concentration (IC50) is the concentration required by the oncolytic peptides to reach fifty percent inhibition. In one embodiment, the oncolytic peptides were used for IC50 test via MTT colorimetric assay.
(§3) Human lung cancer lines PC9 and A549 and murine pancreatic cancer cell line Panc02 were cultured in RPMI medium supplemented with 10% fetal bovine serum and antibiotic in this embodiment. Additionally, murine hepatoma cell line Hepa 1-6, murine melanoma cell line B16-F10, murine fibrosarcoma cell line MN-11, murine mammary cancer cell line E0771 and human diploid fibroblast (HFW) were cultured in DMEM medium supplemented with 10% fetal bovine serum and antibiotic. Cells were cultured in a humidified incubator containing 5% CO2 at 37° C.
(§4) All cancer cell lines were seeded in a 96-well plate with a concentration of 5000-8000 cells/100 μl/well and incubated for 24 hrs. After medium was removed, 100 μl fresh medium containing peptide (ranging from 50 μM to 0.8 μM) was added to the wells. Following 24 hours incubation, fresh medium with MTT (0.5 mg/ml) was replaced and incubated for 3 hours. After medium/MTT was removed, DMSO was added at 100 μl for dissolving the formazan crystal. Cell survival rate was calculated by measuring the absorbance at 540 nm using a Multi-labeled Microplate Reader (Sunrise™, TECAN).

[1] = tested on: HUVEC (Human Umbilical Vein Endothelial (Cell)); assay: MTT cytotoxicity, HUVEC; format: cell-based; conditions: 24 hours incubation
Source text: as §1, §2, §4

[2] = tested on: EO771 (Murine mammary adenocarcinoma); assay: MTT cytotoxicity, EO771; format: cell-based; conditions: EO771, 24 hours incubation
Source text: as §1, §2, §3, §4

[3] = tested on: Hepa I-6 (Murine hepatocellular carcinoma); assay: MTT cytotoxicity, Hepa 1-6; format: cell-based; conditions: Hepa I-6, 24 hours incubation
Source text: as §1, §2, §3, §4

[4] = tested on: B16-F10 (Murine skin malignant melanoma); assay: MTT cytotoxicity, B16-F10; format: cell-based; conditions: B16-F10, 24 hours incubation
Source text: as §1, §2, §3, §4

[5] = tested on: MN-11 (Murine fibrosarcoma); assay: MTT cytotoxicity, MN-11; format: cell-based; conditions: MN-11, 24 hours incubation
Source text: as §1, §2, §3, §4

Panc02 = assay: MTT cytotoxicity, Panc02; format: cell-based, murine; conditions: Panc02, 24 hours incubation
Source text: as §1, §2, §3, §4

[6] = tested on: PC9 (Human non-small cell lung cancer cell); assay: MTT cytotoxicity, PC9; format: cell-based; conditions: PC9, 24 hours incubation
Source text: as §1, §2, §3, §4

[7] = tested on: A549 (Human non-small cell lung cancer cell); assay: MTT cytotoxicity, A549; format: cell-based; conditions: A549, 24 hours incubation
Source text: as §1, §2, §3, §4

[8] = tested on: C9 (Human oral cancer cell); assay: MTT cytotoxicity, C9; format: cell-based; conditions: C9, 24 hours incubation
Source text: as §1, §2, §4

[9] = tested on: OECM-1 (Human oral cancer cell); assay: MTT cytotoxicity, OECM-1; format: cell-based; conditions: OECM-1, 24 hours incubation
Source text: as §1, §2, §4

[10] = tested on: SAS (Human tongue carcinoma); assay: MTT cytotoxicity, SAS; format: cell-based; conditions: 24 hours incubation
Source text: as §1, §2, §4

[11] = tested on: HepG2 Cancer Cells (Human hepatocellular carcinoma); assay: MTT cytotoxicity, HepG2; format: cell-based; conditions: HepG2, 24 hours incubation
Source text: as §1, §2, §4

[12] = tested on: NCI-N87 (Human gastric carcinoma); assay: MTT cytotoxicity, NCI-N87; format: cell-based; conditions: NCI-N87, 24 hours incubation
Source text: as §1, §2, §4

[13] = tested on: HCT-15 (Human colorectal cancer); assay: MTT cytotoxicity, HCT-15; format: cell-based; conditions: HCT-15, 24 hours incubation
Source text: as §1, §2, §4

[14] = tested on: A375 (human malignant melanoma); assay: MTT cytotoxicity, A375; format: cell-based; conditions: A375, 24 hours incubation
Source text: as §1, §2, §4

RBC (Human blood cell) = assay: Cytotoxicity, RBC; format: cell-based
Source text: as §2

[15] = Peptide stability in serum; format: in vitro ADME; conditions: 25% (vol/vol) bovine calf serum
Protocol: Since this kind of peptide is highly toxic, the hope is that the peptide can be decomposed after inducing cancer cells to release danger-associated molecular patterns (DAMPs), and will not stay in the body for too long. After exposure to 25% (vol/vol) bovine calf serum, the residues of peptides were analyzed by liquid chromatography, and the stability at different time points was calculated.

[16] = read-out: Serum stability (residual peptide)

Row | Molecule | IC50 (HFW (Human fibroblast)) [µM] | IC50 [1] [µM] | IC50 [2] [µM] | IC50 [3] [µM] | IC50 [4] [µM] | IC50 [5] [µM] | IC50 (Panc02) [µM] | IC50 [6] [µM] | IC50 [7] [µM] | IC50 [8] [µM] | IC50 [9] [µM] | IC50 [10] [µM] | IC50 [11] [µM] | IC50 [12] [µM] | IC50 [13] [µM] | IC50 [14] [µM] | IC50 (RBC (Human blood cell)) [µM] | Serum stability (residual peptide) ([15]; 0 hr) [%] | remaining at 0.5 h [15, 16] [%] | remaining at 2 h [15, 16] [%] | further results
1 | CC(C)C[C@H](NC(=O)[C@H](Cc1ccc2ccccc2c1)NC(=O)[C@H](CCCCN)NC(=O)[C@H](CC(C)C)NC(=O)[C@H](Cc1c[nH]c2ccccc12)NC(=O)[C@H](CCCCN)NC(=O)[C@H](CCCNC(=N)N)NC(=O)[C@H](Cc1c[nH]c2ccccc12)NC(=O)[C@H](CCCCN)NC(=O)[C@H](CCCCN)NC(=O)[C@H](CCCNC(=N)N)NC(=O)[C@H](CCCNC(=N)N)NC(=O)[C@H](CCCCN)NC(=O)[C@H](CCCCN)NC(=O)[C@H](CCCCN)NC(=O)[C@@H](N)CCCCN)C(=O)N[C@@H](C)C(=O)N[C@@H](CCCCN)C(=O)N[C@@H](CCCCN)C(N)=O [SEQ ID NO: 8, KKKK-RR-KK-WRK-WLK-Nal-LA-KK-NH2] (HELM PEPTIDE1{K.K.K.K.R.R.K.K.W.R.K.W.L.K.[O=C([C@H](Cc1ccc2ccccc2c1)N[*:1])[*:2]].L.A.K.K.[am]}$$$$V2.0; N-terminus assumed) | 7.29 | 5.6 | 3.3 | 3.59 | 9.73 | 3.49 | 2.66 | 1.58 | 2.3 | 5.3 | 5.97 | 3.98 | 8.18 | 3.16 | 3.16 | 3.59 | 37.6 | 100.00 | 105 | 106 | remaining at 1 h ([15]; 1 hr, read-out: Serum stability (residual peptide)): 77.4%; remaining at 4 h [15, 16]: 70.4%; remaining at 6 h [15, 16]: 71.3%; remaining at 8 h [15, 16]: 66.5%
2 | KKKKRRKKWRKWLKWLAKK-NH2 [SEQ ID NO: 7, KKKK-RR-KK-WRK-WLK-WLA-KK-NH2] | 12 | 3.95 | 6.16 | 4.92 | 15.3 | 5.73 | 10.6 | 2.93 | 3.3 | 9.06 | 10.2 | 7.67 | 12.1 | 6.16 | 7.13 | 4.01 | 50.5 | 100.00 | 101 | 72.1 | Serum stability (residual peptide) ([15]; 1 hr): 123.30%; remaining at 4 h [15, 16]: 59.5%; remaining at 6 h [15, 16]: 54.4%; remaining at 8 h [15, 16]: 44.4%; metabolised at 8 h ([15]; after eight hours, read-out: Decrease of peptide in serum): ~56%; metabolised at 4 h ([15]; at the fourth hour, read-out: Decrease of peptide in serum): ~40%
